Where “and” joins values, the source holds several entries; their conditions need not be identical. Equal values may be shown once. Read-outs that look alike come from different tables or passages of the source.
Molecular target: T1, DrOTOP1 G130W/A388W (Danio rerio, UniProt Q7ZWK8, A388W/G130W)
T1 construct: A previously generated codon-optimized full-length DrOTOP1[8]; (UniProt: Q7ZWK8) construct; expressed in transfected cells; host or cells: HEK-293 (CRL-1573, ATCC)
T1 sequence (Q7ZWK8 1-586 G130W/A388W): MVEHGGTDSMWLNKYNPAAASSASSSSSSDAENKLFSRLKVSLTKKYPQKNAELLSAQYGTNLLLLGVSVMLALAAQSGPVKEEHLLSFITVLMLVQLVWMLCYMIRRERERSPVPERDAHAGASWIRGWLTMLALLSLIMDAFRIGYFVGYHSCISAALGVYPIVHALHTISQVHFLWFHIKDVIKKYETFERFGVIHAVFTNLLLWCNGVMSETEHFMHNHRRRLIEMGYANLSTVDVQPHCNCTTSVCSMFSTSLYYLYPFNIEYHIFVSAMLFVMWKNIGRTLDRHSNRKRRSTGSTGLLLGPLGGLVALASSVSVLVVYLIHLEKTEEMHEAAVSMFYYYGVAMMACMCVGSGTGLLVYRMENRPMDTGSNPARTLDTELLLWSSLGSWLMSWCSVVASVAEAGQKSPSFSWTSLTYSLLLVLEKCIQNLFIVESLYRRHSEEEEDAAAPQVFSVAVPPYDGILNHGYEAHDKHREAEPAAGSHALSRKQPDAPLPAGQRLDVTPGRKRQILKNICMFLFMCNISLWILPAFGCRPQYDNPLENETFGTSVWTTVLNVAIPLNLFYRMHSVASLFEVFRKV
Experiment: Whole-cell patch-clamp, inhibition of acid-evoked currents, DrOTOP1 G130W/A388W
Assay type: cell-based, zebrafish (Danio rerio)
Experimental: Given our limited success in identifying mutations of the central site that disrupt antagonism by C2.2, we tested whether mutations of the central site in a background of G130W (the most impactful outer site mutation) might unmask contributions of this site. Thus, we generated and tested double mutants of G130W with E384A, A274W, and A388W. […] We also measured the dose-dependence of inhibition by C2.2 for both G130W/A388W and G130W/E384A (Fig. 5I, J). […] G130W was tested in parallel to confirm that 100 and 300 μM C2.2 produced dose-dependent inhibition.
HEK-293 cells (CRL-1573, ATCC) were cultured in DMEM (Thermofisher 11995073) containing 10% fetal bovine serum (Life Technology 16000044) and Penicillin-Streptomycin (100 I.U./mL) and (100 µg/mL), respectively. Cells were transfected with WT DrOTOP1 or mutant DrOTOP1 channels in 35 mm petri dishes, with ~ 500 ng DNA and 2 μL TransIT-LT1 transfection reagent (Mirus Bio Corporation, Cat # MIR2300) following the manufacturer’s protocol. All constructs were subcloned into a pcDNA3.1 vector that adds an N-terminal fusion tag consisting of an octahistidine tag followed by eGFP, a Gly-Thr-Gly-Thr linker and a 3C protease cleavage site ([…]) followed by WT DrOTOP1, WT mOTOP1, WT hOTOP1, or mutated DrOTOP1. Point mutations were generated via In-Fusion Cloning (Takara) using single-stranded DNA primers generated through IDT and sequence confirmed by Sanger sequencing (GeneWiz).
Whole-cell patch-clamp recording was performed as previously described[6],[22],[25]. Recordings were made with an Axopatch 200B amplifier, digitized with a Digidata 1322a 16-bit data acquisition system, acquired with pClamp 8.2 and analyzed with Clampfit 10 (Molecular Devices). Recordings were sampled at 5 kHz and filtered at 1 kHz. Patch Pipettes with resistance of […] were fabricated from borosilicate glass, and only recordings with a giga-Ohm seal were used in analysis. Membrane potential was held at −80 mV for the duration of recordings. At the beginning of recordings and between, cells were washed with Tyrode’s solution (see below). Once a giga-Ohm seal was reached, cells were lifted and placed in front of microcapillary tubes controlled by a Fast-Step perfusion system (Warner Instruments) so that extracellular solutions could be rapidly exchanged during each experiment.
Standard Tyrode’s solution consisted of 145 mM NaCl, 5 mM KCl, MgCl2, 2 mM CaCl2, 20 mM D-Glucose, and 10 mM HEPES (for pH 7.4). All other extracellular patch-clamp solutions contained 160 mM NMDG-Cl, 2 mM CaCl2, and the following buffers: 10 mM HEPES (for pH 7.4), 10 mM MES (for pH 6.5-5.5), 10 mM CHES for pH 10, and 10 mM HomoPIPES for (pH 5.0). pH adjusted with HCl. When adding compounds to extracellular solutions, the concentration of DMSO in solution was never higher than 0.3%. The pipette contained intracellular solution made up of 120 mM Cs-aspartate, 15 mM CsCl, 2 mM Mg-ATP, 5 mM EGTA, 2.4 mM CaCl2 (100 nM free Ca^2+), and 10 mM HEPES with a pH of 7.3. All extracellular solution osmolarity was adjusted to 300 mOsm and intracellular osmolarity was adjusted to 290 mOsm.
All data are presented as mean ± SEM unless otherwise noted, and each data point represents an independent replicant. Inhibition of compounds was quantified as ((I2peak-I1)/(I2peak))*100, where I1 is the current immediately before wash-off and I2peak is the maximum recovered current (Supplementary Fig. 2). Hill coefficients were determined by the following equation: Y = Bmax*X^h/(Kd^h + X^h). Absolute IC50 was determined by the following equation: Fifty = (Top + Baseline)/2 Y = Bottom + (Top-Bottom)/(1 + ((Top-Bottom)/(Fifty-Bottom) − 1)*(AbsoluteIC50/X)^HillSlope). pH50 curves (Fig. 6G inset) were determined using the following equation: Y = Bottom + (Top-Bottom)/(1 + (EC/X)^HillSlope) where EC = EC50 control. Graphs with electrophysiological data were made in Graphpad Prism 10 (Graphpad Software Inc). […]

[1] = 100 µM, DrOTOP1 G130W/A388W, single cells

| SMILES | Inhibition of currents [1] | inhibition at 100 µM [1] | Inhibition of currents (10 µM, DrOTOP1 G130W/A388W, single cells or mean, mean) | Inhibition of currents (10 µM, DrOTOP1 G130W/A388W, single cells or mean, single cells) | HillSlope (DrOTOP1 G130W/A388W) | Reduction in sensitivity (IC50) compared with single mutant G130W (DrOTOP1 G130W/A388W) | IC50 (DrOTOP1 G130W/A388W, pH 5.5, read-out: IC50) | HillSlope (G130W/A388W, best-fit value) | LogAbsoluteIC50 (G130W/A388W, best-fit value) | IC50 (G130W/A388W, best-fit value, Top = 100, Bottom = 0, read-out: AbsoluteIC50) |
| --- | --- | --- | --- | --- | --- | --- | --- | --- | --- | --- |
| O=C(/C(=N\O)c1ccccc1)c1ccccc1 [C11, benzil monoxime] | 63.5701% and 65.9051% and 61.9048% and 72.4545% and 68.6192% | 63.1% |  |  |  |  |  |  |  |  |
| C=C(C)COc1ccccc1NC(=O)c1nc[nH]c1C [C2.2] |  |  | 1.543% | 2.216% and 2.459% and 1.638% and 1.737% and 0.722% and 0.4878% | 1.10 | 3 fold and ~ 3 fold | 397 µM | 1.1 | 2.599 | 397 µM |
